Results on 27 compounds are retold here after ChEMBL document CHEMBL3627718, “Design, synthesis and preliminary bioactivity studies of imidazolidine-2,4-dione derivatives as Bcl-2 inhibitors” (Bioorg Med Chem, 2015).

In test [1] the target is Apoptosis regulator Bcl-2 (Homo sapiens, UniProt P10415). Kind of test: Competitive binding affinity to Bcl-2 (unknown origin) preincubated for 30 mins followed by 5-FAM-Bid-BH3 peptide addition measured after 20 mins by fluorescence polarization assay.
For test [2], the system named is K562. Put plainly: Cytotoxicity against human K562 cells assessed as inhibition of cell proliferation after 48 hrs by MTT assay. The format is functional, cell-based. To be noted: K562, 48 h. (In general: Formazan colour is commonly taken as a measure of viable cells.)
The test system of test [3] is PC-3. Kind of test: Cytotoxicity against human PC3 cells assessed as inhibition of cell proliferation after 48 hrs by MTT assay. The format is functional, cell-based. The conditions noted are these: PC-3, 48 h.
For test [4], the system named is MDA-MB-231. Kind of test: Cytotoxicity against human MDA-MB-231 cells assessed as inhibition of cell proliferation after 48 hrs by MTT assay. The class given is functional, cell-based. To be noted: MDA-MB-231, 48 h.
For test [5], the target named is Bcl-2-like protein 1 (Homo sapiens, UniProt Q07817). Kind of test: Competitive binding affinity to Bcl-XL (unknown origin) preincubated for 30 mins followed by 5-FAM-Bid-BH3 peptide addition measured after 20 mins by fluorescence polarization assay.
The target of test [6] is Induced myeloid leukemia cell differentiation protein Mcl-1 (Homo sapiens, UniProt Q07820). Put plainly: Competitive binding affinity to Mcl-1 (unknown origin) preincubated for 30 mins followed by 5-FAM-Bid-BH3 peptide addition measured after 20 mins by fluorescence polarization assay. Background: In fluorescence polarisation assays a small probe gives low polarisation when free and higher when bound to something large.
Chain of Induced myeloid leukemia cell differentiation protein Mcl-1 (Q07820 whole entry): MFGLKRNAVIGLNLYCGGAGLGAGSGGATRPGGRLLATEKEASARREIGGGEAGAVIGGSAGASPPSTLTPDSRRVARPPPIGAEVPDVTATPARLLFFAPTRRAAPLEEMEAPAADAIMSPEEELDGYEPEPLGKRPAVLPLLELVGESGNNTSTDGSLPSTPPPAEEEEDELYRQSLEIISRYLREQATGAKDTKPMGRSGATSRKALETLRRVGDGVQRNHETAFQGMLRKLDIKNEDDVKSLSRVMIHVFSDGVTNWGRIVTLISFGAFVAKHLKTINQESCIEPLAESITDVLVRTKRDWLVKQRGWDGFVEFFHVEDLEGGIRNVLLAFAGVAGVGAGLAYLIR

Chain of Bcl-2-like protein 1 (Q07817 whole entry): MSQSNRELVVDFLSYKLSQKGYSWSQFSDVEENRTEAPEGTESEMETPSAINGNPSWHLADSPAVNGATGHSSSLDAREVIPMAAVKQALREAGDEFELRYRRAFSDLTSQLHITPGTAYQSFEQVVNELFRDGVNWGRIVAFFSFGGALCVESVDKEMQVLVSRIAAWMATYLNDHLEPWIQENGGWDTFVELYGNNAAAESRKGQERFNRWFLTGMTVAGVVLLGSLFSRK
Chain of Apoptosis regulator Bcl-2 (P10415 whole entry): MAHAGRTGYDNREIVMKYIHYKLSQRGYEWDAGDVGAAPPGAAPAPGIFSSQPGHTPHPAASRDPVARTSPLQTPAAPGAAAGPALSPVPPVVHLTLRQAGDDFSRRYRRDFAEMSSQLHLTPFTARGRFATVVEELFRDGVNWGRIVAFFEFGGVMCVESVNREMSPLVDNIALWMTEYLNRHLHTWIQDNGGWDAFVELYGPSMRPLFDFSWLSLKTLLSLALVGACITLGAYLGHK

The term Ki denotes a dissociation constant, usually derived from enzyme kinetics or from competition with a known ligand. High values mean lower affinity, low ones higher affinity. Usually IC50 stands for the concentration at which inhibition is half-maximal. For `Cc1ccc(S(=O)(=O)NC(=O)[C@H](Cc2ccccc2)N2C(=O)/C(=C/c3ccc(-c4ccccc4)cc3)SC2=S)cc1`, the Ki in test [1] amounted to 0.62 µM. For the same compound, the figures for the IC50 in test [2], in test [3] and in test [4] were 44.9 µM, 39.8 µM and 35.2 µM, respectively.

For `O=C(Nc1ccc(O)cc1)[C@H](Cc1ccccc1)N1C(=O)N[C@@H](Cc2ccc(-c3ccc(Cl)cc3)cc2)C1=O`, the Ki in test [1] was over 50 µM.

`COC(=O)[C@H](Cc1ccccc1)NC(=O)[C@H](Cc1ccccc1)N1C(=O)N[C@@H](Cc2ccc(-c3ccc(Cl)cc3)cc2)C1=O` displayed a Ki in test [1] of over 50 µM.

Consider `O=C(O)[C@H](Cc1ccccc1)NC(=O)[C@H](Cc1ccccc1)N1C(=O)N[C@@H](Cc2ccc(-c3ccc(Cl)cc3)cc2)C1=O`, for which, in test [1], the Ki is over 50 µM.

For `O=C(O)[C@H](Cc1ccccc1)N1C(=O)N[C@@H](Cc2ccccc2)C1=O`, the Ki in test [1] was over 50 µM.

On to `O=C(O)[C@H](Cc1ccccc1)N1C(=O)N[C@@H](Cc2ccc(Br)cc2)C1=O`, for which, in test [1], the Ki is over 50 µM.

The compound `O=C(O)[C@H](Cc1ccccc1)N1C(=O)N[C@@H](Cc2ccc(-c3ccc(Cl)cc3)cc2)C1=O` came in with a Ki in test [1] of over 50 µM.

In test [1], `Cc1cccc(-c2ccc(C[C@@H]3NC(=O)N([C@@H](Cc4ccccc4)C(=O)O)C3=O)cc2)c1` showed a Ki of over 50 µM.

For the compound `O=C(O)[C@H](Cc1ccccc1)N1C(=O)N[C@@H](Cc2ccc(-c3ccnc(F)c3)cc2)C1=O`, the Ki in test [1] is over 50 µM.

The compound `O=C(NS(=O)(=O)c1ccccc1)[C@H](Cc1ccccc1)N1C(=O)N[C@@H](Cc2ccccc2)C1=O` came in with a Ki in test [1] of over 50 µM.

For `O=C(NS(=O)(=O)c1ccc(Cl)c([N+](=O)[O-])c1)[C@H](Cc1ccccc1)N1C(=O)N[C@@H](Cc2ccccc2)C1=O`, the Ki in test [1] is over 50 µM.

`O=C(NS(=O)(=O)c1ccccc1)[C@H](Cc1ccccc1)N1C(=O)N[C@@H](Cc2ccc(Br)cc2)C1=O` gave a Ki in test [1] of over 50 µM.

Compound `O=C(NS(=O)(=O)c1ccc(Cl)c([N+](=O)[O-])c1)[C@H](Cc1ccccc1)N1C(=O)N[C@@H](Cc2ccc(Br)cc2)C1=O` gave a Ki in test [1] of over 50 µM.

As for `O=C(NS(=O)(=O)c1ccccc1)[C@H](Cc1ccccc1)N1C(=O)N[C@@H](Cc2ccc(-c3ccc(Cl)cc3)cc2)C1=O`, the Ki in test [1] stood at 19 µM.

Take `Cc1ccc(S(=O)(=O)NC(=O)[C@H](Cc2ccccc2)N2C(=O)N[C@@H](Cc3ccc(-c4ccc(Cl)cc4)cc3)C2=O)cc1`: in test [1], the Ki is over 50 µM.

Take `O=C(NS(=O)(=O)c1ccc(Cl)c([N+](=O)[O-])c1)[C@H](Cc1ccccc1)N1C(=O)N[C@@H](Cc2ccc(-c3ccc(Cl)cc3)cc2)C1=O`: the values for the Ki in test [1], in test [5] and in test [6] were 3.7 µM, 6.1 µM and 2.9 µM, respectively. Further, the IC50 in test [2] came to 39.4 µM; in test [3], 51.7 µM; in test [4] it was 70.8 µM.

Turning to `O=C(NS(=O)(=O)c1cccc([N+](=O)[O-])c1)[C@H](Cc1ccccc1)N1C(=O)N[C@@H](Cc2ccc(-c3ccc(Cl)cc3)cc2)C1=O`, the Ki was 15 µM in test [1], over 50 µM in test [5] and over 50 µM in test [6]. In addition, the figures for the IC50 in test [2], in test [3] and in test [4] were 49 µM, 73.3 µM and 76.4 µM, respectively.

In the case of `Cc1cccc(-c2ccc(C[C@@H]3NC(=O)N([C@@H](Cc4ccccc4)C(=O)NS(=O)(=O)c4ccccc4)C3=O)cc2)c1`, the Ki in test [1] is over 50 µM.

In the case of `Cc1ccc(S(=O)(=O)NC(=O)[C@H](Cc2ccccc2)N2C(=O)N[C@@H](Cc3ccc(-c4cccc(C)c4)cc3)C2=O)cc1`, the Ki was 13 µM in test [1], over 50 µM in test [5] and over 50 µM in test [6]. The IC50 worked out at 46.9 µM in test [2], 56 µM in test [3] and 63.5 µM in test [4].

`Cc1cccc(-c2ccc(C[C@@H]3NC(=O)N([C@@H](Cc4ccccc4)C(=O)NS(=O)(=O)c4ccc(Cl)c([N+](=O)[O-])c4)C3=O)cc2)c1`: the Ki worked out at 4.4 µM in test [1], 4.7 µM in test [5] and 2.3 µM in test [6]. Further, the IC50 worked out at 35.1 µM in test [2], 28.4 µM in test [3] and 57.8 µM in test [4].

Regarding `O=Cc1ccc(-c2ccc(C[C@@H]3NC(=O)N([C@@H](Cc4ccccc4)C(=O)NS(=O)(=O)c4ccc(Cl)c([N+](=O)[O-])c4)C3=O)cc2)cc1`, the Ki in test [1] was 13 µM; in test [5], over 50 µM; in test [6] it was 9.3 µM. For the same compound, the IC50 is 68.4 µM in test [2], 63.8 µM in test [3] and 83.4 µM in test [4].

On to `O=C(NS(=O)(=O)c1ccccc1)[C@H](Cc1ccccc1)N1C(=O)N[C@@H](Cc2ccc(-c3ccnc(F)c3)cc2)C1=O`, for which, in test [1], the Ki was over 50 µM.

`Cc1ccc(S(=O)(=O)NC(=O)[C@H](Cc2ccccc2)N2C(=O)N[C@@H](Cc3ccc(-c4ccnc(F)c4)cc3)C2=O)cc1` registered a Ki in test [1] of over 50 µM.

`O=C(NS(=O)(=O)c1ccc(Cl)c([N+](=O)[O-])c1)[C@H](Cc1ccccc1)N1C(=O)N[C@@H](Cc2ccc(-c3ccnc(F)c3)cc2)C1=O` had a Ki in test [1] of over 50 µM.

Compound `COC(=O)[C@@H](NC(=O)[C@H](Cc1ccccc1)N1C(=O)N[C@@H](Cc2ccc(-c3ccc(Cl)cc3)cc2)C1=O)C(C)C` came in with a Ki in test [1] of over 50 µM.

Take `CC(C)[C@H](NC(=O)[C@H](Cc1ccccc1)N1C(=O)N[C@@H](Cc2ccc(-c3ccc(Cl)cc3)cc2)C1=O)C(=O)O`: the Ki in test [1] was over 50 µM.

In turn, `CC(=O)Oc1ccc(NC(=O)[C@H](Cc2ccccc2)N2C(=O)N[C@@H](Cc3ccc(-c4ccc(Cl)cc4)cc3)C2=O)cc1` showed a Ki in test [1] of over 50 µM.
